Tested on: MV-4-11 cells
Test: Gene expression microarray analysis (Affymetrix PrimeView) and GSEA
Assay type: cell-based, human
Design: RFU PODN (11730768_x_at) / Fold change /veh PODN (11730768_x_at) / RFU LINC00158 (11744669_a_at) / Fold change /veh LINC00158 (11744669_a_at) / RFU DUSP10 (11751237_a_at) / Fold change /veh DUSP10 (11751237_a_at) / RFU ID3 (11757404_x_at) / Fold change /veh ID3 (11757404_x_at) / RFU PLEKHG5 (11737974_s_at) / Fold change /veh PLEKHG5 (11737974_s_at) / RFU LRRC4B (11730491_at) / Fold change /veh LRRC4B (11730491_at) / RFU GIMAP4 (11747438_a_at) / Fold change /veh GIMAP4 (11747438_a_at) / RFU KRT8 (11758183_x_at) / Fold change /veh KRT8 (11758183_x_at) / RFU CNN1 (11734310_a_at) / Fold change /veh CNN1 (11734310_a_at) / RFU VPS37D (11726825_at) / Fold change /veh VPS37D (11726825_at) / RFU C10orf10 (11716522_x_at) / Fold change /veh C10orf10 (11716522_x_at) / RFU KIR2DL2 /// KIR2DL4 /// KIR2DL5A /// KIR2DL5B /// KIR2DS1 /// KIR2DS2 /// KIR2DS3 /// KIR2DS4 /// KIR3DL3 /// KIR3DL3 /// KIR3DS1 (11738374_at) / Fold change /veh KIR2DL2 /// KIR2DL4 /// KIR2DL5A /// KIR2DL5B /// KIR2DS1 /// KIR2DS2 /// KIR2DS3 /// KIR2DS4 /// KIR3DL3 /// KIR3DL3 /// KIR3DS1 (11738374_at) / RFU C1QL1 (11718748_at) / Fold change /veh C1QL1 (11718748_at) / RFU TMPRSS4 (11747572_a_at) / Fold change /veh TMPRSS4 (11747572_a_at) / RFU HAMP (11756126_x_at) / Fold change /veh HAMP (11756126_x_at) / RFU RNFT2 (11725882_a_at) / Fold change /veh RNFT2 (11725882_a_at) / RFU NR4A2 (11747474_a_at) / Fold change /veh NR4A2 (11747474_a_at) / RFU ABCC12 (11746883_a_at) / Fold change /veh ABCC12 (11746883_a_at) / RFU TMEM136 (11760407_x_at) / Fold change /veh TMEM136 (11760407_x_at) / RFU CLDN22 /// WWC2 (11732394_at) / Fold change /veh CLDN22 /// WWC2 (11732394_at) / RFU HLA-DPB1 (11760878_x_at) / Fold change /veh HLA-DPB1 (11760878_x_at) / RFU SPINT1 (11716480_a_at) / Fold change /veh SPINT1 (11716480_a_at) / RFU GAP43 (11754022_s_at) / Fold change /veh GAP43 (11754022_s_at) / RFU A4GNT (11735810_at) / Fold change /veh A4GNT (11735810_at) / RFU PRB3 (11715151_x_at) / Fold change /veh PRB3 (11715151_x_at) / RFU TUBB4B (11761932_at) / Fold change /veh TUBB4B (11761932_at) / RFU CAPN14 (11732068_a_at) / Fold change /veh CAPN14 (11732068_a_at) / RFU TMCC2 (11721928_a_at) / Fold change /veh TMCC2 (11721928_a_at) / RFU IRGQ (11745062_a_at) / Fold change /veh IRGQ (11745062_a_at) / RFU FAM174B (11720279_a_at) / Fold change /veh FAM174B (11720279_a_at) / RFU TMPRSS4 (11748680_a_at) / Fold change /veh TMPRSS4 (11748680_a_at) / RFU FAM212B (11763350_a_at) / Fold change /veh FAM212B (11763350_a_at) / RFU PLEKHG5 (11743358_a_at) / Fold change /veh PLEKHG5 (11743358_a_at) / RFU ZSCAN30 (11745921_a_at) / Fold change /veh ZSCAN30 (11745921_a_at) / RFU CMKLR1 (11741424_a_at) / Fold change /veh CMKLR1 (11741424_a_at) / RFU LOC101060620 /// MAPK8IP1 (11723275_at) / Fold change /veh LOC101060620 /// MAPK8IP1 (11723275_at) / RFU SPTSSB (11747773_x_at) / Fold change /veh SPTSSB (11747773_x_at) / RFU PRSS12 (11739890_at) / Fold change /veh PRSS12 (11739890_at) / RFU BIN1 (11741810_x_at) / Fold change /veh BIN1 (11741810_x_at) / RFU WNT11 (11732464_a_at) / Fold change /veh WNT11 (11732464_a_at) / RFU C10orf10 (11716521_a_at) / Fold change /veh C10orf10 (11716521_a_at) / RFU C5orf56 (11738089_at) / Fold change /veh C5orf56 (11738089_at) / RFU CYB561 (11721691_x_at) / Fold change /veh CYB561 (11721691_x_at) / RFU ANKRD19P (11752326_a_at) / Fold change /veh ANKRD19P (11752326_a_at) / RFU OR2T12 /// OR2T33 /// OR2T8 (11738714_s_at) / Fold change /veh OR2T12 /// OR2T33 /// OR2T8 (11738714_s_at) / RFU VCAN (11748164_a_at) / Fold change /veh VCAN (11748164_a_at) / RFU JSRP1 (11732532_at) / Fold change /veh JSRP1 (11732532_at) / RFU KRTAP10-11 (11738290_x_at) / Fold change /veh KRTAP10-11 (11738290_x_at) / RFU MYO3A (11730013_a_at) / Fold change /veh MYO3A (11730013_a_at) / RFU EBF3 (11725865_a_at) / Fold change /veh EBF3 (11725865_a_at) / RFU CAMK2N1 (11719241_x_at) / Fold change /veh CAMK2N1 (11719241_x_at) / RFU C5orf56 (11738088_a_at) / Fold change /veh C5orf56 (11738088_a_at) / RFU OLFML3 (11715873_a_at) / Fold change /veh OLFML3 (11715873_a_at) / RFU LOC100653217 /// NTM (11731650_a_at) / Fold change /veh LOC100653217 /// NTM (11731650_a_at) / RFU MAPK11 (11762145_a_at) / Fold change /veh MAPK11 (11762145_a_at) / RFU FIZ1 (11724087_x_at) / Fold change /veh FIZ1 (11724087_x_at) / RFU OASL (11726364_x_at) / Fold change /veh OASL (11726364_x_at) / RFU SOX15 (11748057_x_at) / Fold change /veh SOX15 (11748057_x_at) / RFU CD79A (11719716_a_at) / Fold change /veh CD79A (11719716_a_at) / RFU HIST1H1D (11736915_at) / Fold change /veh HIST1H1D (11736915_at) / RFU CASKIN2 (11723855_a_at) / Fold change /veh CASKIN2 (11723855_a_at) / RFU LOC730098 (11760151_x_at) / Fold change /veh LOC730098 (11760151_x_at) / RFU OR4N2 (11742367_at) / Fold change /veh OR4N2 (11742367_at) / RFU PRRT2 (11749266_a_at) / Fold change /veh PRRT2 (11749266_a_at) / RFU SNX32 (11753110_a_at) / Fold change /veh SNX32 (11753110_a_at) / RFU CDHR5 (11726645_a_at) / Fold change /veh CDHR5 (11726645_a_at) / RFU RCAN1 (11760418_a_at) / Fold change /veh RCAN1 (11760418_a_at) / RFU FAM167A (11723789_a_at) / Fold change /veh FAM167A (11723789_a_at) / RFU FAM26E (11764081_at) / Fold change /veh FAM26E (11764081_at) / RFU ISYNA1 (11749810_s_at) / Fold change /veh ISYNA1 (11749810_s_at) / RFU ACY1 (11761880_at) / Fold change /veh ACY1 (11761880_at) / RFU 11764098_at / Fold change /veh 11764098_at / RFU SAMD14 (11745864_x_at) / Fold change /veh SAMD14 (11745864_x_at) / RFU NPB (11741838_a_at) / Fold change /veh NPB (11741838_a_at) / RFU TMPRSS6 (11731388_a_at) / Fold change /veh TMPRSS6 (11731388_a_at) / RFU KRTAP10-2 (11738614_at) / Fold change /veh KRTAP10-2 (11738614_at) / RFU ARHGAP8 /// PRR5-ARHGAP8 (11727945_x_at) / Fold change /veh ARHGAP8 /// PRR5-ARHGAP8 (11727945_x_at) / RFU KRTAP5-7 /// NADSYN1 (11734609_at) / Fold change /veh KRTAP5-7 /// NADSYN1 (11734609_at) / RFU RASL12 (11751679_a_at) / Fold change /veh RASL12 (11751679_a_at) / RFU CDKN2B (11736163_a_at) / Fold change /veh CDKN2B (11736163_a_at) / RFU PRF1 (11729649_at) / Fold change /veh PRF1 (11729649_at) / RFU, ZNF638 /// ZNF638-IT1 / Fold change vs veh, ZNF638 /// ZNF638-IT1 / RFU, PANK3 / Fold change vs veh, PANK3 / RFU, SH3YL1 / Fold change vs veh, SH3YL1 / RFU, ZEB2 / Fold change vs veh, ZEB2 / RFU, NRIP1 / Fold change vs veh, NRIP1 / RFU, PTTG1IP / Fold change vs veh, PTTG1IP / RFU, CAPN2 / Fold change vs veh, CAPN2 / RFU, MED14 / Fold change vs veh, MED14 / RFU, SNORA58 / Fold change vs veh, SNORA58 / RFU, C1orf63 / Fold change vs veh, C1orf63 / RFU, LRRFIP1 / Fold change vs veh, LRRFIP1 / RFU, NDUFAF7 / Fold change vs veh, NDUFAF7 / RFU, SLC12A2 / Fold change vs veh, SLC12A2 / RFU, IBTK / Fold change vs veh, IBTK / RFU, ESF1 / Fold change vs veh, ESF1 / Fold change vs veh, TMEM50B / RFU, TAOK1 / Fold change vs veh, TAOK1 / RFU, ACBD3 / Fold change vs veh, ACBD3 / RFU, TMA16 / Fold change vs veh, TMA16 / RFU, RWDD3 / Fold change vs veh, RWDD3 / RFU, BCAT1 / Fold change vs veh, BCAT1 / RFU, EDEM3 / Fold change vs veh, EDEM3 / RFU, TMEM33 / Fold change vs veh, TMEM33 / RFU, WDR75 / Fold change vs veh, WDR75 / RFU, AHCTF1 / Fold change vs veh, AHCTF1 / RFU, TFRC / Fold change vs veh, TFRC / RFU, ZDHHC17 / Fold change vs veh, ZDHHC17 / RFU, NOM1 / Fold change vs veh, NOM1 / RFU, ARL8B / Fold change vs veh, ARL8B / RFU, ZBTB11 / Fold change vs veh, ZBTB11 / RFU, TAMM41 / Fold change vs veh, TAMM41 / RFU, KIAA1704 /// LOC100996395 / Fold change vs veh, KIAA1704 /// LOC100996395 / RFU, ING1 / Fold change vs veh, ING1 / RFU, TRMT61B / Fold change vs veh, TRMT61B / RFU, FUBP3 / Fold change vs veh, FUBP3 / RFU, TP53 / Fold change vs veh, TP53 / RFU, TNKS2 / Fold change vs veh, TNKS2 / RFU, ZFP14 / Fold change vs veh, ZFP14 / RFU, ACTR2 / Fold change vs veh, ACTR2 / RFU, PPP3R1 / Fold change vs veh, PPP3R1 / RFU, PIK3R1 / Fold change vs veh, PIK3R1 / RFU, HNRNPA1 / Fold change vs veh, HNRNPA1 / RFU, RNF170 / Fold change vs veh, RNF170 / RFU, ZNF28 / Fold change vs veh, ZNF28 / RFU, RNGTT / Fold change vs veh, RNGTT / RFU, OGT / Fold change vs veh, OGT / RFU, BRD1 / Fold change vs veh, BRD1 / RFU, MARS / Fold change vs veh, MARS / RFU, ZNF655 / Fold change vs veh, ZNF655 / RFU, FAHD1 / Fold change vs veh, FAHD1 / RFU, BDP1 / Fold change vs veh, BDP1 / RFU, LRRCC1 / Fold change vs veh, LRRCC1 / RFU, ARID1A / Fold change vs veh, ARID1A / RFU, ZNF146 / Fold change vs veh, ZNF146 / RFU, ZNF330 / Fold change vs veh, ZNF330 / RFU, GPN3 / Fold change vs veh, GPN3 / RFU, C9orf123 / Fold change vs veh, C9orf123 / RFU, N4BP2L2 / Fold change vs veh, N4BP2L2 / RFU, ARFIP1 / Fold change vs veh, ARFIP1 / RFU, FAM179B / Fold change vs veh, FAM179B / RFU, BCL10 / Fold change vs veh, BCL10 / RFU, UHRF1BP1L / Fold change vs veh, UHRF1BP1L / RFU, BET1 / Fold change vs veh, BET1 / RFU, CNOT2 / Fold change vs veh, CNOT2 / RFU, ZNF268 / Fold change vs veh, ZNF268 / Fold change vs veh, ZNF507 / RFU, DGCR2 / Fold change vs veh, DGCR2 / RFU, WDSUB1 / Fold change vs veh, WDSUB1 / Fold change vs veh, HSP90B1 /// MIR3652 / RFU, ADSS / Fold change vs veh, ADSS / RFU, GK / Fold change vs veh, GK / RFU, ZNF148 / Fold change vs veh, ZNF148 / RFU, TAF9 / Fold change vs veh, TAF9 / RFU, SLC1A5 / Fold change vs veh, SLC1A5 / RFU, SLMO2 / Fold change vs veh, SLMO2 / RFU, ABCC4 / Fold change vs veh, ABCC4 / RFU, LOC101060439 /// RAP1B / Fold change vs veh, LOC101060439 /// RAP1B / RFU, RFX7 / Fold change vs veh, RFX7 / RFU, GTPBP10 / Fold change vs veh, GTPBP10 / RFU, CNEP1R1 / Fold change vs veh, CNEP1R1 / RFU, BIVM-ERCC5 /// ERCC5 / Fold change vs veh, BIVM-ERCC5 /// ERCC5 / RFU, ILF3 / Fold change vs veh, ILF3 / RFU 11762660_at / Fold change /veh 11762660_at / RFU VCAN (11757783_s_at) / Fold change /veh VCAN (11757783_s_at) / RFU DDX43 (11728927_at) / Fold change /veh DDX43 (11728927_at) / RFU KRT8 (11758188_x_at) / Fold change /veh KRT8 (11758188_x_at) / RFU NKD1 (11759106_at) / Fold change /veh NKD1 (11759106_at) / RFU SRD5A1 (11742802_a_at) / Fold change /veh SRD5A1 (11742802_a_at) / RFU TPSAB1 /// TPSB2 (11721975_s_at) / Fold change /veh TPSAB1 /// TPSB2 (11721975_s_at) / RFU GSTM3 (11746129_a_at) / Fold change /veh GSTM3 (11746129_a_at) / RFU IL23R (11737362_x_at) / Fold change /veh IL23R (11737362_x_at) / RFU TMEM51 (11727254_a_at) / Fold change /veh TMEM51 (11727254_a_at) / RFU PIWIL2 (11732686_x_at) / Fold change /veh PIWIL2 (11732686_x_at) / RFU ORM1 (11744905_x_at) / Fold change /veh ORM1 (11744905_x_at) / RFU CCDC152 (11743942_at) / Fold change /veh CCDC152 (11743942_at) / RFU ECM1 (11717891_a_at) / Fold change /veh ECM1 (11717891_a_at) / RFU IL23R (11748794_a_at) / Fold change /veh IL23R (11748794_a_at) / RFU TNFAIP8L3 (11732012_x_at) / Fold change /veh TNFAIP8L3 (11732012_x_at) / RFU MBOAT4 (11741988_at) / Fold change /veh MBOAT4 (11741988_at) / RFU 11764193_at / Fold change /veh 11764193_at / RFU TMEM53 (11763286_at) / Fold change /veh TMEM53 (11763286_at) / RFU MAGEB2 (11727129_at) / Fold change /veh MAGEB2 (11727129_at) / RFU TMEM200A (11744735_a_at) / Fold change /veh TMEM200A (11744735_a_at) / RFU CCDC152 (11751479_a_at) / Fold change /veh CCDC152 (11751479_a_at) / RFU FAM211A (11726209_a_at) / Fold change /veh FAM211A (11726209_a_at) / RFU RGS16 (11746705_a_at) / Fold change /veh RGS16 (11746705_a_at) / RFU VCAN (11755009_s_at) / Fold change /veh VCAN (11755009_s_at) / RFU RHOB (11743442_s_at) / Fold change /veh RHOB (11743442_s_at) / RFU RGS16 (11720943_a_at) / Fold change /veh RGS16 (11720943_a_at) / RFU RGS16 (11720944_at) / Fold change /veh RGS16 (11720944_at) / RFU, VPS4B / Fold change vs veh, VPS4B / RFU, CREB1 / Fold change vs veh, CREB1 / RFU, DNAJC13 / Fold change vs veh, DNAJC13 / RFU, GNAQ / Fold change vs veh, GNAQ / RFU, CDK5R1 / Fold change vs veh, CDK5R1 / RFU, ZRANB3 / Fold change vs veh, ZRANB3 / RFU, CUL4A / Fold change vs veh, CUL4A / RFU, CCNY / Fold change vs veh, CCNY / RFU, UFL1 / Fold change vs veh, UFL1 / RFU, COG3 / Fold change vs veh, COG3 / RFU, DIAPH2 / Fold change vs veh, DIAPH2 / RFU, SKA2 / Fold change vs veh, SKA2 / RFU, AFF3 / Fold change vs veh, AFF3 / RFU, LMF1 / Fold change vs veh, LMF1 / RFU, IPO11 / Fold change vs veh, IPO11 / RFU, DFFB / Fold change vs veh, DFFB / RFU, FOXP1 / Fold change vs veh, FOXP1 / RFU, CARD8 / Fold change vs veh, CARD8 / RFU, STRN3 / Fold change vs veh, STRN3 / RFU, ADK / Fold change vs veh, ADK / RFU, RASSF2 / Fold change vs veh, RASSF2 / RFU, WIPF1 / Fold change vs veh, WIPF1 / RFU, LARP1B / Fold change vs veh, LARP1B / RFU, RASA1 / Fold change vs veh, RASA1 / RFU, RB1 / Fold change vs veh, RB1 / RFU, PPFIA1 / Fold change vs veh, PPFIA1 / RFU, MAT2A / Fold change vs veh, MAT2A / RFU, CCT5 / Fold change vs veh, CCT5 / RFU, WDR92 / Fold change vs veh, WDR92 / RFU, CUX1 / Fold change vs veh, CUX1 / RFU, TTC7A / Fold change vs veh, TTC7A / RFU, TMEM135 / Fold change vs veh, TMEM135 / RFU, DEPTOR / Fold change vs veh, DEPTOR / RFU, CPM / Fold change vs veh, CPM / RFU, DNAJB6 / Fold change vs veh, DNAJB6 / RFU, CACNA2D3 / Fold change vs veh, CACNA2D3 / RFU, DTX4 / Fold change vs veh, DTX4 / RFU, TFCP2 / Fold change vs veh, TFCP2 / RFU, GMCL1 /// GMCL1P1 / Fold change vs veh, GMCL1 /// GMCL1P1 / RFU, AEBP2 / Fold change vs veh, AEBP2 / RFU, SNHG1 /// SNORD22 /// SNORD25 /// SNORD26 /// SNORD27 /// SNORD28 /// SNORD29 /// SNORD31 / Fold change vs veh, SNHG1 /// SNORD22 /// SNORD25 /// SNORD26 /// SNORD27 /// SNORD28 /// SNORD29 /// SNORD31 / Fold change (Aza/veh), C12orf56 (ProbeSet 11735607_a_at) / Fold change (ACY-1035/veh), C12orf56 (ProbeSet 11735607_a_at) / Fold change (Aza/veh), FGFR1OP (ProbeSet 11751329_s_at) / Fold change (ACY-1035/veh), FGFR1OP (ProbeSet 11751329_s_at) / Fold change (Aza/veh), VPS36 (ProbeSet 11739960_a_at) / Fold change (ACY-1035/veh), VPS36 (ProbeSet 11739960_a_at) / RFU SYPL1 (11715823_x_at) / Fold change /veh SYPL1 (11715823_x_at) / RFU IGFBP7 (11715501_s_at) / Fold change /veh IGFBP7 (11715501_s_at) / RFU REEP3 (11722064_at) / Fold change /veh REEP3 (11722064_at) / RFU IGLL1 (11728026_x_at) / Fold change /veh IGLL1 (11728026_x_at): dose or concentration left out as unconfirmed
Conditions: ProbeSet 11724877_a_at; LIST D

Nc1ccc(-c2cccs2)cc1NC(=O)c1ccc2c(c1)cc(C1CC1)n2CCN1CCOCC1 [ACY-1035] was tested, and the “RFU, AEBP2” value was 30.16 RFU.
